{
  "source": "ChEMBL document CHEMBL3044691",
  "about": "“The stability and degradation of a new biological pesticide, pyoluteorin” (Pest Manag Sci, 2010)",
  "type_in_all_cases": "physicochemical",
  "key": {"[1]": {"test": "Half life under dark condition at room temperature"}, "[2]": {"test": "Half life in phosphate buffer at pH 6.6 at room temperature under sunlight"}, "[3]": {"test": "Half life in phosphate buffer at pH 7.4 at room temperature under sunlight"}, "[4]": {"test": "Half life in phosphate buffer at pH 6.2 under dark condition"}, "[5]": {"test": "Half life under fluorescent lamp light at room temperature"}, "[6]": {"test": "Half life under high-pressure mercury lamp light at room temperature"}, "[7]": {"test": "Half life in phosphate buffer at pH 7 at room temperature under sunlight"}, "[8]": {"test": "Half life in water solution at 626.5 mg/l initial concentration under dark condition"}, "[9]": {"test": "Half life in phosphate buffer at pH 5.8 at room temperature under sunlight"}, "[10]": {"test": "Half life in water solution at 37 degC under dark condition"}, "[11]": {"test": "Half life in water solution at 70 degC under dark condition"}, "[12]": {"test": "Half life in water solution at 375 mg/l initial concentration under dark condition"}, "[13]": {"test": "Half life under sunlight at room temperature"}, "[14]": {"test": "Half life in water solution at 28 degC under dark condition"}, "[15]": {"test": "Half life in phosphate buffer at pH 7 under dark condition"}, "[16]": {"test": "Half life in phosphate buffer at pH 6.6 under dark condition"}, "[17]": {"test": "Half life in phosphate buffer at pH 6.2 at room temperature under sunlight"}, "[18]": {"test": "Half life under incandescent lamp light at room temperature"}, "[19]": {"test": "Half life in water solution at 248.5 mg/l initial concentration under dark condition"}, "[20]": {"test": "Half life in phosphate buffer at pH 5.8 under dark condition"}, "[21]": {"test": "Half life in phosphate buffer at pH 7.8 under dark condition"}, "[22]": {"test": "Half life in water solution at 54 degC under dark condition"}, "[23]": {"test": "Half life in water solution at 121.5 mg/l initial concentration under dark condition"}, "[24]": {"test": "Half life in phosphate buffer at pH 7.4 under dark condition"}, "[25]": {"test": "Half life in phosphate buffer at pH 7.8 at room temperature under sunlight"}, "[26]": {"test": "Half life in water solution at 502.5 mg/l initial concentration under dark condition"}},
  "data": [
    {"smiles": "O=C(c1cc(Cl)c(Cl)[nH]1)c1c(O)cccc1O", "note": "[PYOLUTEORIN]", "values": [
      {"measurement": "half-life", "setting": "[1]", "result": 24.9, "unit": "days"},
      {"measurement": "half-life", "setting": "[2]", "result": 0.92, "unit": "days"},
      {"measurement": "half-life", "setting": "[3]", "result": 0.58, "unit": "days"},
      {"measurement": "half-life", "setting": "[4]", "result": 42, "unit": "days"},
      {"measurement": "half-life", "setting": "[5]", "result": 23.2, "unit": "days"},
      {"measurement": "half-life", "setting": "[6]", "result": 3.1, "unit": "days"},
      {"measurement": "half-life", "setting": "[7]", "result": 0.69, "unit": "days"},
      {"measurement": "half-life at 626.5 mg/l", "setting": "[8]", "result": 51.7, "unit": "days"},
      {"measurement": "half-life", "setting": "[9]", "result": 1.77, "unit": "days"},
      {"measurement": "half-life", "setting": "[10]", "result": 26.5, "unit": "days"},
      {"measurement": "half-life", "setting": "[11]", "result": 18.8, "unit": "days"},
      {"measurement": "half-life at 375 mg/l", "setting": "[12]", "result": 37.7, "unit": "days"},
      {"measurement": "half-life", "setting": "[13]", "result": 3.5, "unit": "days"},
      {"measurement": "half-life", "setting": "[14]", "result": 30, "unit": "days"},
      {"measurement": "half-life", "setting": "[15]", "result": 54.1, "unit": "days"},
      {"measurement": "half-life", "setting": "[16]", "result": 50.2, "unit": "days"},
      {"measurement": "half-life", "setting": "[17]", "result": 1.29, "unit": "days"},
      {"measurement": "half-life", "setting": "[18]", "result": 23.5, "unit": "days"},
      {"measurement": "half-life at 248.5 mg/l", "setting": "[19]", "result": 31.1, "unit": "days"},
      {"measurement": "half-life", "setting": "[20]", "result": 34.8, "unit": "days"},
      {"measurement": "half-life", "setting": "[21]", "result": 23.9, "unit": "days"},
      {"measurement": "half-life", "setting": "[22]", "result": 22, "unit": "days"},
      {"measurement": "half-life at 121.5 mg/l", "setting": "[23]", "result": 26.5, "unit": "days"},
      {"measurement": "half-life", "setting": "[24]", "result": 32.8, "unit": "days"},
      {"measurement": "half-life", "setting": "[25]", "result": 0.42, "unit": "days"},
      {"measurement": "half-life at 502.5 mg/l", "setting": "[26]", "result": 44.4, "unit": "days"}
    ]}
  ]
}
